Laboratory results taken from patent publication US11873298B2, “Compounds and uses thereof” (JANSSEN PHARMACEUTICA NV, priority 2017, dated 2024).

Experiments:
SCD1 = molecular target: T1, SCD1 (Homo sapiens, UniProt O00767); experiment: Growth inhibition of humanized yeast strain expressing SCD1 as sole desaturase; type: cell-based; details: humanized yeast strain expressing SCD1
T1 construct: host or cells: S. cerevisiae ole1Δ strain (W303 pdr1Δ pdr3Δ background), plasmid pRS316 with TDH3 promoter and CYC1 terminator
T1 sequence (O00767 1-359): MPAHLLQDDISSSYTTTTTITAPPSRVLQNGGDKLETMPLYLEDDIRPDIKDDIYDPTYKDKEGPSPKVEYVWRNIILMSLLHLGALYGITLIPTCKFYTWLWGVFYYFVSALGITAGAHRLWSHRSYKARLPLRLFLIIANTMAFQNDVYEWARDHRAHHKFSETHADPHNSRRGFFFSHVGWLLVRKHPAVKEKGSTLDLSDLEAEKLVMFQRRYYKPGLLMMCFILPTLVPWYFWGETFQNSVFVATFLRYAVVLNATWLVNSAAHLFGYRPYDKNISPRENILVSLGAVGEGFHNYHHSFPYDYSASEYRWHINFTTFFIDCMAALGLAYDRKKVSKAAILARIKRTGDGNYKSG
How it was run: (§1)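 ole1Δ yeast (W303 pdr1Δ pdr3Δ background) carrying plasmid-borne Ole1, SCD1 or SCD5, grown in uracil-free media; cultures pre-grown in raffinose, seeded at 2× density 0.02 in galactose media with compound. Growth read as OD600 after 24 h at 30° C. for Ole1, 40 h for SCD1/SCD5.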

[1] = test system: yeast strains expressing the human ApoE4; experiment: Yeast ApoE4 toxicity rescue assay (OD600 growth); details: 24 h; for EC50: read-out: ApoE4 EC50; for Emax: read-out: ApoE4 Emax
Description: (§2) The induced expression of α-synuclein and ApoE4 confers cytotoxicity, thus enabling the identification of compounds that can restore cell viability. This instantaneous/synchronous induction of α-synuclein and ApoE4 can be achieved due to the following expression control. In glucose-containing media, gene expression from the GAL1 promoter is ‘off’ and actively repressed by additional epigenetic factors. In raffinose, expression is ‘off’, but the promoter not actively repressed. Upon transition to galactose-containing media, the promoter is instantaneously turned ‘on’ to achieve robust and synchronous induction of α-synuclein or ApoE4 expression. This highly regulated induction provides a robust window for the determination of both efficacy (amplitude of protective effect) and potency (concentration of protective effect) of cytoprotective compounds.
(§3) Re-suspended compound stocks were subsequently arrayed into 384 well compound plates using automated pipetting. All other wells not receiving stock compound were filled with 10 μL of 100% DMSO using an automated plate filler (Multidrop Combi). An 11 point, 2-fold serial dilution was then performed using the robotic platform. Compound assay plates were covered with foil and stored at −20° C. until use.
(§4) Each strain was handled according to standard protocols and cultured in media composed of CSM (complete synthetic media), YNB (yeast nitrogenous base), and a 2% (w/v) carbon source (either glucose, raffinose, or galactose).
(§5) In a standard yeast assay, a single-use aliquot of cells was thawed on ice and diluted into CSM/glucose (5 mL). Cultures were grown for 8 hours at 30° C. This pre-growth enables the yeast to exit the thaw and begin to grow without expressing aSyn or ApoE4. After 8 hours, cell density (OD600) was determined and cultures diluted to an OD600 of 0.01 in CSM/raffinose for an overnight culture phase at 30° C. During this period, the active glucose repression of the GAL1 promoter was relieved; however, expression of the α-Syn/ApoE4 genes were not yet induced. After ˜16 hours of growth, cultures attain an OD600 of 0.4-0.8 and were ready to apply to assay plates containing compound.
(§6) Compound profiling assays were executed in clear-bottom 384 well plates. First, compound plates were thawed at room temperature for 45′, centrifuged at 1,000×g for 1 minute, and the foil removed. Clear 384 well assay plates were then filled with 15 μL of CSM/galactose. […] The pin tool was washed iteratively with both 50% DMSO and 100% ethanol between each assay plate. After delivering compound to each assay plate, the overnight CSM/raffinose aSyn or ApoE4 cultures were added at a 2X cell density (0.04 for aSyn and 0.08 for ApoE4) in CSM/galactose to achieve a final assay OD600 of 0.02 and 0.04 for aSyn and ApoE, respectively. The cultures (15 μL per well) were then dispensed to the compound -containing 384 well assay plates using an automated plate filler. Plates were incubated in a humidified 30° C. incubator for 40 or 24 hours for aSyn and ApoE4, respectively. The ODsoo of each assay plate was then read with a microplate reader (e.g., Perkin Elmer Envision).
(§7) The efficacy and potency of compounds were calculated according to the following. Raw data (OD600 values) were first background corrected to account for OD600 contributed by the plate and media itself. The efficacy (percent above DMSO, herein referred to as “Emax”) was calculated according to the equation: (Experimental well−DMSO control well)/(DMSO control well)*100. […] Normalized dose-response data was fit with a logistic regression curve using Spotfire (TIBCO), or similar curve-fitting software package. EC50 values were then reported along with EMax to provide both efficacy and potency measures for each analog and enable further compound design.

[2] = test system: yeast strains expressing the human α-synuclein; experiment: Yeast α-synuclein toxicity rescue assay (OD600 growth); details: 40 h; for EC50: read-out: α-Syn EC50; for Emax: read-out: α-Syn Emax
Description: as §2, §3, §4, §5, §6, §7

Ole1 = molecular target: T2, Ole1 (Saccharomyces cerevisiae, UniProt P21147); experiment: Growth inhibition of yeast strain expressing Ole1 as sole desaturase; type: cell-based; details: yeast strain expressing Ole1 as sole desaturase
T2 construct: expressed in transfected cells; host or cells: S. cerevisiae ole1Δ strain (W303 pdr1Δ pdr3Δ background), plasmid pRS316 with TDH3 promoter and CYC1 terminator
T2 sequence (P21147 1-510): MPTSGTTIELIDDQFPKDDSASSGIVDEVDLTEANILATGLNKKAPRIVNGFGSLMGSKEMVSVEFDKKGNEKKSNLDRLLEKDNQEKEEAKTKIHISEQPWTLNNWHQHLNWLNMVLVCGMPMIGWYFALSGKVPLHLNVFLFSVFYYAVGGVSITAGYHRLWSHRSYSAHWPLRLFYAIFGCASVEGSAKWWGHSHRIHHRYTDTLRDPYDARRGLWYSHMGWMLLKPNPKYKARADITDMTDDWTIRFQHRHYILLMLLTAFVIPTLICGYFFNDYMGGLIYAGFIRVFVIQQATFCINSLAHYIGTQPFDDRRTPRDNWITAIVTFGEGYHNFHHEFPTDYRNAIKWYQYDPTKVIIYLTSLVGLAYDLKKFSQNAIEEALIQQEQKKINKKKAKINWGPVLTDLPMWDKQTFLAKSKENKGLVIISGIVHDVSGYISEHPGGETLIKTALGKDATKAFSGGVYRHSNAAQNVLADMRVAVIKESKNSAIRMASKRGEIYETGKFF
How it was run: as §1

SCD5 = molecular target: T3, SCD5 (Homo sapiens, UniProt Q86SK9); experiment: Growth inhibition of humanized yeast strain expressing SCD5 as sole desaturase; type: cell-based; details: humanized yeast strain expressing SCD5
T3 construct: host or cells: S. cerevisiae ole1Δ strain (W303 pdr1Δ pdr3Δ background), plasmid pRS316 with TDH3 promoter and CYC1 terminator
T3 sequence (Q86SK9 1-330): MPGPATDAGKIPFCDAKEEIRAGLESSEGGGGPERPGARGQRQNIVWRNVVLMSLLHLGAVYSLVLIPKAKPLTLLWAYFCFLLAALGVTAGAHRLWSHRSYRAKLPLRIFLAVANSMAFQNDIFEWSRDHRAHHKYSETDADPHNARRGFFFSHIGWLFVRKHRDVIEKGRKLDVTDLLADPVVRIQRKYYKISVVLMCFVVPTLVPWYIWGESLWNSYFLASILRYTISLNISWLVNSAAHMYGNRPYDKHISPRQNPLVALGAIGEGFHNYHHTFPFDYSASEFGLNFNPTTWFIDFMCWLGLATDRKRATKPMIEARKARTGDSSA
How it was run: as §1

Row | SMILES | IC50 (SCD1) | EC50 [1] | Emax [1] | EC50 [2] | Emax [2] | IC50 (Ole1) | IC50 (SCD5) | SCD1 % Max Inhibition (SCD1) | OLE1 % Max Inhibition (Ole1) | SCD5 % Max Inhibition (SCD5)
1 | CCOc1ccc(-c2noc(C3CCN(C(=O)[C@@H]4CC(=O)N(c5ccccc5)C4)CC3)n2)cc1OC [compound 86] | > 45 µM | 0.064 µM | 633% | 0.018 µM | 772% | > 45 µM | 33.3 µM |  |  | 
2 | Cc1cccc(-c2nc(C3CCN(C(=O)[C@@H]4CC(=O)N(c5ccc(C)c(C)c5)C4)CC3)no2)c1 (single isomer, unassigned) [compound 74] | 31.3 µM |  | 411% | 17.9 µM | 155% | > 45 µM | > 45 µM |  |  | 
3 | CC(C)c1ccc(C(=O)N2CCC(c3nc(-c4cccc(F)c4)no3)CC2)cc1 [compound 8] | > 45 µM |  | 111% | 13.8 µM | 188% | > 45 µM | > 45 µM |  |  | 
4 | Cc1cccc(-c2noc(C3CCN(C(=O)C4CC(=O)N(c5ccc(C)c(C)c5)C4)CC3)n2)c1 (stereo not drawn) [compound 3] | > 45 µM |  | 200% | 17.8 µM | 307% | 38.5 µM | > 45 µM |  |  | 
5 | Cc1ccc(N2CC(C(=O)N3CCC(c4nc(-c5ccccc5)no4)CC3)CC2=O)cc1C (stereo not drawn) [compound 1] | > 45 µM |  | 320% |  | 155% | 40.3 µM | > 45 µM |  |  | 
6 | CCOc1ccc(-c2noc(C3CCN(C(=O)NCCc4ccccc4)CC3)n2)cc1OC [compound 83] | > 45 µM |  | 567% | 9.31 µM | 151% | > 45 µM | > 45 µM |  |  | 
7 | COc1ccc(-c2noc(C3CCN(C(=O)CNC(=O)c4ccccc4)CC3)n2)cc1 [compound 10] | > 45 µM | 4.61 µM | 736% | 4.87 µM | 392% | > 45 µM | > 45 µM |  |  | 
8 | O=C(NCC(=O)N1CCC(c2nc(-c3ccc4ccccc4n3)no2)CC1)c1ccccc1 [compound 79] | > 45 µM | 18.8 µM | 631% | 9.91 µM | 627% | > 45 µM | > 45 µM |  |  | 
9 | COc1ccc(-c2noc(C3CCN(C(=O)CNC(=O)c4cccc(Cl)c4)CC3)n2)cc1OC [compound 26] | > 45 µM | 0.377 µM | 811% | 0.042 µM | 608% | > 45 µM | 24.5 µM |  |  | 
10 | COc1ccc(-c2noc(C3CCN(C(=O)[C@H]4CC(=O)N(c5ccc(C)c(C)c5)C4)CC3)n2)cc1 [Compound 64] | > 45 µM | 15.3 µM | 330% | 13.7 µM | 228% | > 45 µM | > 45 µM | 32.39% | 115.95% | 42.05%
11 | COc1ccc(-c2noc(C3CCN(C(=O)CNC(=O)c4ccc(Cl)cc4)CC3)n2)cc1OC [compound 27] | > 45 µM | 0.39 µM | 761% | 0.059 µM | 589% | > 45 µM | > 45 µM |  |  | 
12 | COc1ccc(-c2csc(C3CCN(C(=O)CNC(=O)c4ccccc4)CC3)n2)cc1OC [Compound 38] | > 45 µM | 6.01 µM | 750% | 3.3 µM | 336% | > 45 µM | 41 µM | 72.81% | 20.26% | 64.24%
13 | Cc1nn(C)c2cc(-c3noc(N4CCN(C(=O)C5CC(=O)N(c6ccccc6)C5)CC4)n3)ccc12 (stereo not drawn) [compound 96] | > 45 µM | 0.228 µM | 840% | 0.026 µM | 343% | > 45 µM | > 45 µM |  |  | 
14 | COc1ccc(-c2noc(C3CCN(C(=O)[C@H]4CC(=O)N(c5ccc(C)c(C)c5)C4)CC3)n2)cc1OC (single isomer, unassigned) [compound 67] | 40.7 µM | 17.4 µM | 420% | 7.38 µM | 255% | > 45 µM | > 45 µM |  |  | 
15 | CCOc1ccc(-c2noc(C3CCN(C(=O)N4CCCCC4)CC3)n2)cc1OC [Compound 53] | > 45 µM | 16.6 µM | 296% | 6.6 µM | 81% | > 45 µM | > 45 µM | 79.96% | 98.51% | 2.94%
16 | CCOc1ccc(-c2noc(C3CCN(C(=O)CNC(=O)c4ccccc4)CC3)n2)cc1OC [Compound 155] | > 45 µM | 2.16 µM | 865% | 0.011 µM | 556% |  | 33.8 µM | 98.25% | 1.65% | 67.35%
17 | COc1ccc(-c2noc(C3CCN(C(=O)CNC(=O)c4cccc(C)c4)CC3)n2)cc1OC [compound 14] | > 45 µM | 1.83 µM | 771% | 1.16 µM | 463% | > 45 µM | 27.5 µM |  |  | 
18 | COc1ccc(-c2noc(C3CCN(C(=O)Cc4ccccc4)CC3)n2)cc1OC [Compound 44] | > 45 µM | 13.3 µM | 676% | 10.9 µM | 579% | > 45 µM | > 45 µM | 17.96% | 93.69% | 10.99%
19 | CCOc1ccc(-c2noc(N3CCC(C(=O)N4CCCC(c5ccccc5)C4)CC3)n2)cc1OC (stereo not drawn) [compound 100] | 32.8 µM | 2.11 µM | 651% | 1.19 µM | 385% | > 45 µM | > 45 µM |  |  | 
20 | COc1cccc(-c2noc(C3CCN(C(=O)CNC(=O)c4ccccc4)CC3)n2)c1 [compound 11] | > 45 µM |  | 600% | 5.89 µM | 309% | > 45 µM | > 45 µM |  |  | 
21 | COc1ccc(-c2noc(C3CCN(C(=O)CNC(=O)c4ccccc4Cl)CC3)n2)cc1OC [compound 25] | > 45 µM | 1.85 µM | 889% | 0.751 µM | 619% | > 45 µM | 39.4 µM |  |  | 
22 | COc1ccc(-c2noc(C3CCN(C(=O)CNC(c4ccccc4)C(F)(F)F)CC3)n2)cc1OC (stereo not drawn) [Compound 34] | > 45 µM |  | 596% | 11.1 µM | 562% | > 45 µM | > 45 µM | 42.55% | 76.89% | 5.37%
23 | COc1ccc(-c2coc(C3CCN(C(=O)CNC(=O)c4ccccc4)CC3)n2)cc1OC [Compound 37] | > 45 µM | 6.53 µM | 849% | 2.21 µM | 608% | > 45 µM | > 45 µM | 81.44% | 9.99% | 74.18%
24 | COc1ccc(-c2noc(C3CCN(C(=O)CNC(=O)c4ccc(C)c(C)c4)CC3)n2)cc1OC [compound 15] | > 45 µM | 3.63 µM | 866% | 1.71 µM | 628% | > 45 µM | > 45 µM |  |  | 
